Data: US20160002204A1 (Board of Regents, The University of Texas System, priority 2014, published 2016)

Experiments:
[1] = biological target: T1, GLS1 (purified recombinant human GAC) (Homo sapiens, UniProt O94925); assay: GLS1 enzymatic activity assay (dual-coupled, Amplex UltraRed/resorufin); type: biochemical
T1 sequence (O94925 55-598 isoform O94925-3 limits assumed): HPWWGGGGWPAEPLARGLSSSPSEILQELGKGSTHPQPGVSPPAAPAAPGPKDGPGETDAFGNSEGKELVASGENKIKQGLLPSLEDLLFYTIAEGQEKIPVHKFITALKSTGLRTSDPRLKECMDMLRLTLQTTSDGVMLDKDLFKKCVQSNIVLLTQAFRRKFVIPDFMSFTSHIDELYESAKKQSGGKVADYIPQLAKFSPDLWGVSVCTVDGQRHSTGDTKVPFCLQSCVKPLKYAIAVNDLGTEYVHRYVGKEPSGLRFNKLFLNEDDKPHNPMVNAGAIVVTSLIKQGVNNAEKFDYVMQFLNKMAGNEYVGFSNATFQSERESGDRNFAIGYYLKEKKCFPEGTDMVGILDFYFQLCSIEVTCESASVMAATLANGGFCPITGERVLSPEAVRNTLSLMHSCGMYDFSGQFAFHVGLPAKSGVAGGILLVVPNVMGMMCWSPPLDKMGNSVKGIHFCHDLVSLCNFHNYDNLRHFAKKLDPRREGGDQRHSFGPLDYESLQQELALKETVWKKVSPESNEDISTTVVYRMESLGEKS
Procedure, shortened: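 GAC activity measured by coupling glutamate to glutamate oxidase and HRP, generating resorufin from Amplex UltraRed. Enzyme (2 nM) preincubated with 50 mM potassium phosphate 10 min at room temperature, then inhibitor 10 min; 1 mM glutamine substrate, 1% DMSO. Fluorescence 530/590 nm, kinetic or 20-min endpoint; IC50 from four-parameter logistic fit.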

A549 cells = assay: A549 proliferation (viability) assay, Cell Titer Fluor, 72 hours; type: cell-based; conditions: Homo sapiens
Procedure, shortened: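 1000 A549 cells/well, RPMI 1640/10% dialyzed FBS, 24 h attach; compound 72 h, 0.5% DMSO, 37 °C/5% CO2; Cell Titer Fluor fluorescence; EC50 via 4-parameter logistic.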

SMILES | IC50 [1] | EC50 (A549 cells)
C[C@H](C(=O)Nc1ccn(CCC(F)Cn2cc(C(=O)NCc3cc(C(F)(F)F)ccn3)nn2)c(=O)c1F)c1ccccc1 (stereo partly drawn) [Example 343, 1-(2-fluoro-4-{3-fluoro-2-oxo-4-[(2S) 2-phenylpropanamido]-1,2-dihydropyridin-1-yl}butyl)-N-{[4-(trifluoromethyl)pyridin-2-yl]methyl}-1H-1,2,3-triazole-4-carboxamide] | < 100 nM | < 100 nM
O=C(CN1CCCCC1)Nc1ccn(CCC(F)Cn2cc(C(=O)NCc3cc(C(F)(F)F)ccn3)nn2)c(=O)c1F (stereo not drawn) [Example 344, 1-(2-fluoro-4-{3-fluoro-2-oxo-4-[2-(piperidin-1-yl)acetamido]-1,2-dihydropyridin-1-yl}butyl)-N-{[4-(trifluoromethyl)pyridin-2-yl]methyl}-1H-1,2,3-triazole-4-carboxamide] | 100 to 500 nM | < 100 nM
CC(C(=O)Nc1ccn(CCC(F)Cn2cc(C(=O)NCc3cc(C(F)(F)F)ccn3)nn2)c(=O)c1F)N1CCCCC1 (stereo not drawn) [Example 345, 1-(2-fluoro-4-{3-fluoro-2-oxo-4-[2-(piperidin-1-yl)propanamido]-1,2-dihydropyridin-1-yl}butyl)-N-{[4-(trifluoromethyl)pyridin-2-yl]methyl}-1H-1,2,3-triazole-4-carboxamide] | 100 to 500 nM | < 100 nM
O=C(Nc1ccn(CCC(F)Cn2cc(C(=O)NCc3cccc(OC(F)(F)F)c3)nn2)c(=O)c1F)OC1CCCCC1 (stereo not drawn) [Example 346, cyclohexyl N-(3-fluoro-1-{3-fluoro-4-[4-({[3-(trifluoro-methoxy)phenyl]methyl}carbamoyl)-1H-1,2,3-triazol-1-yl]butyl}-2-oxo-1,2-dihydropyridin-4-yl)carbamate] | < 100 nM | < 100 nM
CCOC(=O)C(=O)Nc1ccn(CCC(F)Cn2cc(C(=O)NCc3cccc(OC(F)(F)F)c3)nn2)c(=O)c1F (stereo not drawn) [Example 347, ethyl [(3-fluoro-1-{3-fluoro-4-[4-({[3-(trifluoromethoxy)phenyl]methyl}carbamoyl)-1H-1,2,3-triazol-1-yl]butyl}-2-oxo-1,2-dihydropyridin-4-yl)carbamoyl]formate] | 100 to 500 nM | > 5000 nM
O=C(Cc1ccccc1)Nc1ccn(CCC(F)Cn2cc(C(=O)NCc3cncc(C(F)(F)F)c3)nn2)c(=O)c1F (stereo not drawn) [Example 348, 1-{2-fluoro-4-[3-fluoro-2-oxo-4-(2-phenylacetamido)-1,2-dihydropyridin-1-yl]butyl}-N-{[5-(trifluoromethyl)pyridin-3-yl]methyl}-1H-1,2,3-triazole-4-carboxamide] | < 100 nM | < 100 nM
C[C@H](C(=O)Nc1ccn(CCC(F)Cn2cc(C(=O)NCc3cncc(C(F)(F)F)c3)nn2)c(=O)c1F)c1ccccc1 (stereo partly drawn) [Example 349] | < 100 nM | < 100 nM
O=C(CC1CCC1)Nc1ccn(CCC(F)Cn2cc(C(=O)NCc3cncc(C(F)(F)F)c3)nn2)c(=O)c1F (stereo not drawn) [Example 350, 1-{4-[4-(2-cyclobutylacetamido)-3-fluoro-2-oxo-1,2-dihydropyridin-1-yl]-2-fluorobutyl}-N-{[5-(trifluoromethyl)pyridin-3-yl]methyl}-1H-1,2,3-triazole-4-carboxamide] | < 100 nM | < 100 nM
O=C(CN1CCCCC1)Nc1ccn(CCC(F)Cn2cc(C(=O)NCc3cncc(C(F)(F)F)c3)nn2)c(=O)c1F (stereo not drawn) [Example 351, 1-(2-fluoro-4-{3-fluoro-2-oxo-4-[2-(piperidin-1-yl)acetamido]-1,2-dihydropyridin-1-yl}butyl)-N-{[5-(trifluoromethyl)pyridin-3-yl]methyl}-1H-1,2,3-triazole-4-carboxamide] | < 100 nM | < 100 nM
CC(C(=O)Nc1ccn(CCC(F)Cn2cc(C(=O)NCc3cncc(C(F)(F)F)c3)nn2)c(=O)c1F)N1CCCCC1 (stereo not drawn) [Example 352, 1-(2-fluoro-4-{3-fluoro-2-oxo-4-[2-(piperidin-1-yl)propanamido]-1,2-dihydropyridin-1-yl}butyl)-N-{[5-(trifluoromethyl)pyridin-3-yl]methyl}-1H-1,2,3-triazole-4-carboxamide] | < 100 nM | < 100 nM
O=C(Nc1ccn(CCC(F)Cn2cc(C(=O)NCc3cccc(OC(F)(F)F)c3)nn2)c(=O)c1F)c1ccccc1 (stereo not drawn) [Example 353, 1-[4-(4-benzamido-3-fluoro-2-oxo-1,2-dihydropyridin-1-yl)-2-fluorobutyl]-N-{[3-(trifluoromethoxy)phenyl]methyl}-1H-1,2,3-triazole-4-carboxamide] | < 100 nM | 100 to 500 nM
CC(C)OC(=O)Nc1ccn(CCC(F)Cn2cc(C(=O)NCc3cccc(OC(F)(F)F)c3)nn2)c(=O)c1F (stereo not drawn) [Example 354] | < 100 nM | < 100 nM
O=C(CC1CCCC1)Nc1ccn(CCC(F)Cn2cc(C(=O)NCc3cccc(OC(F)(F)F)c3)nn2)c(=O)c1F (stereo not drawn) [Example 355, 1-{4-[4-(2-cyclopentylacetamido)-3-fluoro-2-oxo-1,2-dihydropyridin-1-yl]-2-fluorobutyl}-N-{[3-(trifluoromethoxy)phenyl]methyl}-1H-1,2,3-triazole-4-carboxamide] | < 100 nM | < 100 nM
O=C(CC1CCC1)Nc1ccn(CCC(F)Cn2cc(C(=O)NCc3ncccc3F)nn2)c(=O)c1F (stereo not drawn) [Example 356, 1-{4-[4-(2-cyclobutylacetamido)-3-fluoro-2-oxo-1,2-dihydropyridin-1-yl]-2-fluorobutyl}-N-[(3-fluoropyridin-2-yl)methyl]-1H-1,2,3-triazole-4-carboxamide] | 100 to 500 nM | 100 to 500 nM
O=C(CC1CCC1)Nc1ccn(CCC(F)Cn2cc(C(=O)NCc3ccc(C(F)(F)F)nc3)nn2)c(=O)c1F (stereo not drawn) [Example 357, 1-{4-[4-(2-cyclobutylacetamido)-3-fluoro-2-oxo-1,2-dihydropyridin-1-yl]-2-fluorobutyl}-N-{[6-(trifluoromethyl)pyridin-3-yl]methyl}-1H-1,2,3-triazole-4-carboxamide] | < 100 nM | 100 to 500 nM
O=C(Nc1ccn(CCC(F)Cn2cc(C(=O)NCc3cccc(OC(F)(F)F)c3)nn2)c(=O)c1F)C(=O)N1CCCCC1 (stereo not drawn) [Example 358, 1-(2-fluoro-4-(3-fluoro-2-oxo-4-(2-oxo-2-(piperidin-1-yl)acetamido)pyridin-1(2H)-yl)butyl)-N-(3-(trifluoromethoxy)benzyl)-1H-1,2,3-triazole-4-carboxamide] | < 100 nM | < 100 nM
O=C(O)C(=O)Nc1ccn(CCC(F)Cn2cc(C(=O)NCc3cccc(OC(F)(F)F)c3)nn2)c(=O)c1F (stereo not drawn) [Example 359, [(3-fluoro-1-{3-fluoro-4-[4-({[3-(trifluoromethoxy)phenyl]methyl}carbamoyl)-1H-1,2,3-triazol-1-yl]butyl}-2-oxo-1,2-dihydropyridin-4-yl)carbamoyl]formic acid] | 100 to 500 nM | 500 to 5000 nM
O=C(CC1CCCC1)Nc1ccn(CCC(F)Cn2cc(C(=O)NCc3cncc(C(F)(F)F)c3)nn2)c(=O)c1F (stereo not drawn) [Example 360, 1-{4-[4-(2-cyclopentylacetamido)-3-fluoro-2-oxo-1,2-dihydropyridin-1-yl]-2-fluorobutyl}-N-{[5-(trifluoromethyl)pyridin-3-yl]methyl}-1H-1,2,3-triazole-4-carboxamide] | < 100 nM | < 100 nM
